{"source": "patent US20090088373A1", "about": "“USE OF COMPOSITIONS TO ENHANCE INNATE IMMUNE RESPONSE” (priority 2007, published 2009)", "key": {"[1]": {"tested_on": "cathelicidin", "assay": "Cathelicidin mRNA expression in normal human keratinocytes (NHEK)", "assay_type": "cell-based", "set-up": "Cathelicidin mRNA expression (Mean) / Cathelicidin mRNA expression (means): unit not given here", "conditions": "for Cathelicidin mRNA expression (Means of N = 3): Example 6, 10 nM Pimecrolimus, 1 nM 1,25D3; for Cathelicidin mRNA expression (means): 1 uM tacrolimus, 1 ug/ml CsA, 25ng/ml rapamycin", "protocol": "(§1) To assess the effect of pimecrolimus on the innate immune response of the epidermis, cultures of normal human keratinocytes (NHEK) are stimulated with combinations of a concentration of 10 nM pimecrolimus, 1 μg/ml TLR 2/CD14 ligand—peptidoglycan (PGN), 10 μg/ml lipoteichoic acid (LTA), 2 0.1 μg/ml TLR 2/6 ligand—Malp-, and/or 0.1 μg/ml TLR 4/CD14 ligand—lipopolysaccharide (LPS). Expression of cathelicidin mRNA (Table 3) and protein as well as Human Beta Defensin (HBD) 2 (Table 4) and HBD3 (Table 5) expression in normal human keratinocytes is measured.\n(§2) To assess the effect of pimecrolimus on the innate immune response of the epidermis, cultures of normal human keratinocytes (NHEK) are stimulated with a concentration of 10 nM pimecrolimus,1 nM 1.25 D3, 0.1 μg/ml TLR2/6 ligand Malp-2 or their combination. Expression of cathelicidin, CD14 and TLR2 mRNA normal human keratinocytes is measured and evaluated accordingly to the procedures as detailed in Example 2 above.\nTo assess the effect of pimecrolimus on the innate immune response of the epidermis, cultures of normal human keratinocytes (NHEK) are stimulated with a concentration of 10 nM pimecrolimus, 1 uM tacrolimus, 1 ug/ml CsA, 25ng/ml rapamycin, or a combination of pimecrolimus and rapamycin, each of these with or without 0.1 μg/ml TLR2/6 ligand Malp-2. Cathelicidin mRNA expression is evaluated.\n(§3) To assess the effect of time dependent effects of pimecrolimus on the innate immune response of the epidermis, cultures of normal human keratinocytes (NHEK) are stimulated with 10 nM Pimecrolimus and low dose calciferol (1,25D3) 1 nM for different time points. mRNA expression of cathelicidin, CD14 and TLR2 is analyzed by qPCR.\nTo assess the effect of varying levels of pimecrolimus on the innate immune response of the epidermis, cultures of normal human keratinocytes (NHEK) are stimulated with 0 nM, 5 nM, 10 nM, 20 nM, 30 nM, […], […] and 60 nM concentrations of pimecrolimus. Expression of cathelicidin mRNA expression is measured and evaluated accordingly to the procedures as detailed in Example 2 above.\n(§4) To assess the effect of calciferol on varying levels of pimecrolimus on the innate immune response of the epidermis, cultures of normal human keratinocytes (NHEK) are stimulated with 0.01 nM, 0.1 nM, 1 nM and 10 nM concentrations of pimecrolimus with or without 1 nM concentrations of calciferol for 24 hours. Expression of cathelicidin mRNA and gene expression of TLR2 is measured and evaluated accordingly to the procedures as detailed in Example 2 above."}, "[2]": {"tested_on": "CD14", "assay": "CD14 gene expression by qPCR in NHEK", "assay_type": "cell-based, human", "conditions": "for CD14 mRNA expression (Mean): 10 nM pimecrolimus; for CD14 mRNA expression (Means of N = 3): Example 6, 10 nM Pimecrolimus, 1 nM 1,25D3", "protocol": "(§5) To assess the effect of pimecrolimus on the innate immune response of the epidermis, cultures of normal human keratinocytes (NHEK) are stimulated with a combination of a concentration of 10 nM pimecrolimus and of 1 nM 1.25D3. Gene expression of TLR1, TLR2, TLR4, TLR6 and CD14 are evaluated by qPCR. For CD14 protein expression, a Western Blot is performed and bands are quantified by densitometry using lmagej. Vehicle treated keratinocytes serve as controls. Cathelicidin protein expression is evaluated by immunofluorescence staining.\nas §2, §3"}, "[3]": {"tested_on": "TLR6", "assay": "TLR6 gene expression by qPCR in NHEK", "assay_type": "cell-based, human", "conditions": "Example 3; 10 nM pimecrolimus, 1 nM 1.25D3", "protocol": "as §5"}, "[4]": {"tested_on": "TLR2", "assay": "TLR2 gene expression by qPCR in NHEK", "assay_type": "cell-based, human", "conditions": "for TLR2 mRNA expression (Mean): 10 nM pimecrolimus; for TLR2 mRNA expression (Means of N = 3): Example 6, 10 nM Pimecrolimus, 1 nM 1,25D3", "protocol": "as §5, §2, §3, §4"}, "[5]": {"tested_on": "Staphylococcus aureus ΔmprF", "assay": "Growth of S. aureus ΔmprF (OD600) mixed with lysates of stimulated normal human keratinocytes", "assay_type": "cell-based", "conditions": "S. aureus + lysates of NHEK stimulated with 10 nM pimecrolimus, 1 nM 1.25D3 or combination, 37° C.", "protocol": "To assess the effect of pimecrolimus on the innate immune response of the epidermis against bacteria, cultures of normal human keratinocytes (NHEK) are stimulated with a concentration of 10 nM pimecrolimus, 1 nM 1.25D3 (active 1.25 D-hydroxy calciferol) or their combination. Cells are lysed via sonication 20 minutes in an ice bath, after which cell lysates were mixed with Staphylococcus aureus ΔmprF cultures and incubated at 37° C. Bacterial growth over time is monitored by OD600 (Table 1). To determine if Pimecrolimus alone was able to kill Staphylococcus aureus ΔmprF, Pimecrolimus in a concentration of 10 nM is co-incubated with Staphylococcus aureus ΔmprF cultures and incubated at 37° C. (Table 2). Bacterial growth is monitored by OD600 (*: p<0.05; **: p<0.01; Student's t-test)."}, "[6]": {"tested_on": "TLR1", "assay": "TLR1 gene expression by qPCR in NHEK", "assay_type": "cell-based, human", "conditions": "Example 3; 10 nM pimecrolimus, 1 nM 1.25D3", "protocol": "as §5"}, "[7]": {"tested_on": "HBD3", "assay": "HBD3 expression in normal human keratinocytes (NHEK)", "assay_type": "cell-based", "set-up": "unit not given here", "conditions": "Example 2; TLR ligand alone, without Pimecrolimus", "protocol": "as §1"}, "[8]": {"tested_on": "Human Beta Defensin (HBD) 2", "assay": "HBD2 expression in normal human keratinocytes (NHEK)", "assay_type": "cell-based", "set-up": "unit not given here", "conditions": "Example 2; TLR ligand alone, without Pimecrolimus", "protocol": "as §1"}, "[9]": {"conditions": "Example 4, 1 nM 1.25 D3, 0.1 μg/ml Malp-2 or combination"}, "[10]": {"conditions": "Example 5, Experiment 1, with 0.1 μg/ml Malp-2, 10 nM pimecrolimus"}, "[11]": {"conditions": "Example 5, Experiment 1, without Malp-2, 10 nM pimecrolimus"}, "[12]": {"conditions": "Example 5, Experiment 2, with 0.1 μg/ml Malp-2, 10 nM pimecrolimus"}, "[13]": {"conditions": "Example 5, Experiment 2, without Malp-2, 10 nM pimecrolimus"}, "[14]": {"conditions": "Example 2, TLR ligand alone, without Pimecrolimus (1 μg/ml PGN, 10 μg/ml LTA, 0.1 μg/ml Malp-2, 0.1 μg/ml LPS)"}}, "data": [{"molecule": "C=C1/C(=C\\C=C2/CCC[C@]3(C)[C@@H]([C@H](C)CCCC(C)(C)O)CC[C@@H]23)C[C@@H](O)C[C@@H]1O", "note": "[1.25D3, 1.25 D-hydroxy calciferol]", "values": [{"measurement": "Cathelicidin mRNA expression (Mean)", "setting": "[1]; Example 4, 10 nM pimecrolimus, 1 nM 1.25 D3, 0.1 μg/ml Malp-2 or combination", "result": 2.76}, {"measurement": "Cathelicidin mRNA expression (Means of N = 3)", "setting": "[1]; 0 h", "result": 1.00}, {"measurement": "Cathelicidin mRNA expression (Means of N = 3)", "setting": "[1]; 8 h", "result": 35.04}, {"measurement": "Cathelicidin mRNA expression (Means of N = 3)", "setting": "[1]; 24 h", "result": 134.03}, {"measurement": "Cathelicidin mRNA expression (Means of N = 3)", "setting": "[1]; 48 h", "result": 92.37}, {"measurement": "CD14 mRNA expression (Mean)", "setting": "[2]; Example 3, 1 nM 1.25D3", "result": 3.01}, {"measurement": "CD14 mRNA expression (Mean)", "setting": "[2]; [9]", "result": 3.01}, {"measurement": "CD14 mRNA expression (Means of N = 3)", "setting": "[2]; 0 h", "result": 0.71}, {"measurement": "CD14 mRNA expression (Means of N = 3)", "setting": "[2]; 8 h", "result": 38.35}, {"measurement": "CD14 mRNA expression (Means of N = 3)", "setting": "[2]; 24 h", "result": 12.26}, {"measurement": "CD14 mRNA expression (Means of N = 3)", "setting": "[2]; 48 h", "result": 0.93}, {"measurement": "TLR6 mRNA expression (Mean)", "setting": "[3]", "result": 1.01}, {"measurement": "TLR2 mRNA expression (Mean)", "setting": "[4]; Example 3, 1 nM 1.25D3", "result": 0.66}, {"measurement": "TLR2 mRNA expression (Mean)", "setting": "[4]; [9]", "result": 0.10}, {"measurement": "TLR2 mRNA expression (Means of N = 3)", "setting": "[4]; 0 h", "result": 1.00}, {"measurement": "TLR2 mRNA expression (Means of N = 3)", "setting": "[4]; 8 h", "result": 1.32}, {"measurement": "TLR2 mRNA expression (Means of N = 3)", "setting": "[4]; 24 h", "result": 1.51}, {"measurement": "TLR2 mRNA expression (Means of N = 3)", "setting": "[4]; 48 h", "result": 1.55}, {"measurement": "Bacterial growth OD600 (Mean)", "setting": "[5]; 0 h", "result": 0.2203}, {"measurement": "Bacterial growth OD600 (Mean)", "setting": "[5]; 2 h", "result": 0.2677}, {"measurement": "Bacterial growth OD600 (Mean)", "setting": "[5]; 4 h", "result": 0.301}, {"measurement": "Bacterial growth OD600 (Mean)", "setting": "[5]; 5 h", "result": 0.3963}, {"measurement": "Bacterial growth OD600 (Mean)", "setting": "[5]; 6 h", "result": 0.513}, {"measurement": "Bacterial growth OD600 (Mean)", "setting": "[5]; 8 h", "result": 0.6203}, {"measurement": "TLR1 mRNA expression (Mean)", "setting": "[6]", "result": 1.93}]}, {"molecule": "CO[C@H]1C[C@@H]2CC[C@@H](C)[C@@](O)(O2)C(=O)C(=O)N2CCCC[C@H]2C(=O)O[C@H]([C@H](C)C[C@@H]2CC[C@@H](O)[C@H](OC)C2)CC(=O)[C@H](C)/C=C(\\C)[C@@H](O)[C@@H](OC)C(=O)[C@H](C)C[C@H](C)/C=C/C=C/C=C/1C", "note": "[Rapamycin, rapamycin]", "values": [{"measurement": "Cathelicidin mRNA expression (means)", "setting": "[1]; [10]", "result": 4.03}, {"measurement": "Cathelicidin mRNA expression (means)", "setting": "[1]; [11]", "result": 5.13}, {"measurement": "Cathelicidin mRNA expression (means)", "setting": "[1]; [12]", "result": 12.38}, {"measurement": "Cathelicidin mRNA expression (means)", "setting": "[1]; [13]", "result": 5.85}]}, {"molecule": "C=CC[C@@H]1/C=C(\\C)C[C@H](C)C[C@H](OC)[C@H]2O[C@@](O)(C(=O)C(=O)N3CCCC[C@H]3C(=O)O[C@H](/C(C)=C/[C@@H]3CC[C@@H](O)[C@H](OC)C3)[C@H](C)[C@@H](O)CC1=O)[C@H](C)C[C@@H]2OC", "note": "[Tacrolimus, tacrolimus]", "values": [{"measurement": "Cathelicidin mRNA expression (means)", "setting": "[1]; [10]", "result": 5.47}, {"measurement": "Cathelicidin mRNA expression (means)", "setting": "[1]; [11]", "result": 0.67}, {"measurement": "Cathelicidin mRNA expression (means)", "setting": "[1]; [12]", "result": 0.77}, {"measurement": "Cathelicidin mRNA expression (means)", "setting": "[1]; [13]", "result": 3.34}]}, {"molecule": "Malp-2", "values": [{"measurement": "Cathelicidin mRNA expression (Mean)", "setting": "[1]; [14]", "result": 2.29}, {"measurement": "Cathelicidin mRNA expression (means)", "setting": "[1]; [10]", "result": 1.53}, {"measurement": "Cathelicidin mRNA expression (means)", "setting": "[1]; [12]", "result": 3.19}, {"measurement": "HBD3 expression (Mean)", "setting": "[7]", "result": 3.51}, {"measurement": "HBD2 expression (Mean)", "setting": "[8]", "result": 119.16}]}, {"molecule": "lipopolysaccharide [LPS]", "values": [{"measurement": "Cathelicidin mRNA expression (Mean)", "setting": "[1]; [14]", "result": 0.65}, {"measurement": "HBD3 expression (Mean)", "setting": "[7]", "result": 1.39}, {"measurement": "HBD2 expression (Mean)", "setting": "[8]", "result": 5.68}]}, {"molecule": "lipoteichoic acid [LTA]", "values": [{"measurement": "Cathelicidin mRNA expression (Mean)", "setting": "[1]; [14]", "result": 3.82}, {"measurement": "HBD3 expression (Mean)", "setting": "[7]", "result": 2.46}, {"measurement": "HBD2 expression (Mean)", "setting": "[8]", "result": 4.43}]}, {"molecule": "peptidoglycan [PGN]", "values": [{"measurement": "Cathelicidin mRNA expression (Mean)", "setting": "[1]; [14]", "result": 1.18}, {"measurement": "HBD3 expression (Mean)", "setting": "[7]", "result": 0.61}, {"measurement": "HBD2 expression (Mean)", "setting": "[8]", "result": 3.26}]}]}
